From patent publication US20090304668A1, “LARVAL POLYPEPTIDES HAVING A NUCLEASE ACTIVITY” (The Secretary of State for Defence, priority 2006, published 2009) come the findings set out here.

The subject of data set [1] is DNA methyl green. The experiment in a line: Dose dependency curves (DNA methyl green, 96 well plate). The format is biochemical. Conditions: for EC50: 37° C. As to the method:
In order to further characterise ES, dose dependency curves were created enabling the EC50 value to be determined. ES was diluted to a concentration of 13.40 μg/ml in PBS, following this 1 in 10 dilutions in PBS were then performed. DNase was diluted to a concentration of 10 μg/ml in PBS, this was then also subject to 1 in 10 dilutions. 20 μl of each dilution was added to 180 μl of 0.2 mg/ml DNA methyl green in a 96 well plate (done in triplicate). Absorbance readings were then taken after 3, 18, and 24 hours at 630 nm in an Anthos Lucy1 microplate luminometer. The dose dependency curves were created by plots of log10 concentration (mcg/ml) against mean absorbance (630 nm) in the statistical analysis program, GraphPad Prism™.

The subject of data set [2] is bacterial genomic DNA. Nature of the data set: Agarose gel electrophoresis of bacterial genomic DNA in presence of soybean trypsin inhibitor and EDTA. The class given is biochemical, E. coli. The following applies: 20 minutes 37° C. As to the method:
Samples containing bacterial genomic DNA, and ES or DNase in the absence and presence of EDTA and a soybean trypsin inhibitor were loaded onto an agarose gel to observe the effects of these inhibitors on DNase activity. A soybean trypsin inhibitor (Sigma) was washed 4 times with PBS and each time centrifuged into a pellet and the PBS removed as the supernatant. On the 5th washing, 500 μl of PBS were used to suspend the trypsin inhibitor and this was equally distributed between the samples to be treated. Samples of ES 162.3 μg/ml and PBS (control) were treated with the soybean trypsin inhibitor in order to remove any serine proteinases present. These samples were treated with STI 3 times in order to achieve maximal removal of serine proteinases, again following each treatment the solution was centrifuged and the ES/PBS removed as the supernatant. Following washing, these solutions were transferred to a fresh Eppendorf.
15.34 μl of 1.385 mg/ml bacterial genomic DNA was diluted to 0.1 mg/ml in 184.6 μl of either sterile PBS or 5 mM EDTA. 121.1 μg/ml DNase was also made up (10 μl of 1 mg/ml diluted in 72.6 μl of PBS.) In order to make up the samples, 50 μl of the appropriate one of these DNA solutions plus 3.125 μl of STI treated/untreated DNase/ES/PBS. […]

In data set [3] the test system is DNA methyl green. Nature of the data set: DNA methyl green assay of ES and DNase activity in the presence of EDTA. Conditions: 5.07 μg/ml ES, 3.78 μg/ml DNase. The format is biochemical. The protocol: 125 μl of 81.15 μg/ml ES was added to both 1875 μl DNA methyl green (0.2 mg/ml) and DNA methyl green containing 5 mM EDTA. Final concentrations are therefore 5.07 μg/ml ES and 4.7 mM EDTA. DNase was diluted to 121.1 μg/ml, diluted 1 in 2 and added to 1875 μl of DNA methyl green and DNA methyl green containing EDTA. The activity of STI treated ES was also assayed in the same way, in the presence of or in the absence of EDTA. These samples were then incubated in a water bath at 37° C. 100 μl samples were taken every 2 minutes (in triplicate) and added to 150 μl of 0.083M sodium citrate in a 96 well plate. The plates were left to stand overnight and the absorbance then read at 630 nm in an Anthos Lucy1 microplate luminometer.

For DNase, the results for the EC50 in data set [1] (absorbance reading at 3 hours), in data set [1] (absorbance reading at 18 hours) and in data set [1] (absorbance reading at 24 hours) were 0.1921 µg/mL, 0.0605 µg/mL and 0.0571 µg/mL, respectively. In addition, in data set [1] (from EC50 values), the “potency of DNase relative to ES” value was 3 times. Also, the “degradation of bacterial genomic DNA in presence of EDTA” value in data set [2] (5 mM EDTA) is “no DNase activity”. Besides, the “degradation of bacterial genomic DNA in absence of EDTA” value in data set [2] (untreated, no EDTA) is recorded as “no DNase activity”. Also, the “DNase activity in the presence of EDTA” value in data set [3] (EDTA) is “activity almost abolished”. Besides, the “DNase activity in the absence of EDTA” value in data set [3] (no EDTA) was “relatively similar activity”.

Broadly, the EC50 is the concentration giving half of the maximal effect. A lower EC50 goes with a more potent agent.
